From patent US11814367B2, “Inhibitors of glycogen synthase 1 (GYS1) and methods of use thereof” (Maze Therapeutics, Inc., priority 2021, dated 2023) come the findings set out here.

The target in experiment [1] is hGYS1 enzyme (recombinant hGYS1/GN1 protein) (Homo sapiens (Human), UniProt P13807). The experiment can be described thus: GYS1 coupled enzyme assay (PK/LDH). The experiment is classed as biochemical. As to conditions: hGYS1/GN1 50 nM, UDP-Glucose 0.8 mM, G6P 1 mM; geometric mean of at least 2 runs.
Chain of hGYS1 enzyme (recombinant hGYS1/GN1 protein) (P13807 whole entry): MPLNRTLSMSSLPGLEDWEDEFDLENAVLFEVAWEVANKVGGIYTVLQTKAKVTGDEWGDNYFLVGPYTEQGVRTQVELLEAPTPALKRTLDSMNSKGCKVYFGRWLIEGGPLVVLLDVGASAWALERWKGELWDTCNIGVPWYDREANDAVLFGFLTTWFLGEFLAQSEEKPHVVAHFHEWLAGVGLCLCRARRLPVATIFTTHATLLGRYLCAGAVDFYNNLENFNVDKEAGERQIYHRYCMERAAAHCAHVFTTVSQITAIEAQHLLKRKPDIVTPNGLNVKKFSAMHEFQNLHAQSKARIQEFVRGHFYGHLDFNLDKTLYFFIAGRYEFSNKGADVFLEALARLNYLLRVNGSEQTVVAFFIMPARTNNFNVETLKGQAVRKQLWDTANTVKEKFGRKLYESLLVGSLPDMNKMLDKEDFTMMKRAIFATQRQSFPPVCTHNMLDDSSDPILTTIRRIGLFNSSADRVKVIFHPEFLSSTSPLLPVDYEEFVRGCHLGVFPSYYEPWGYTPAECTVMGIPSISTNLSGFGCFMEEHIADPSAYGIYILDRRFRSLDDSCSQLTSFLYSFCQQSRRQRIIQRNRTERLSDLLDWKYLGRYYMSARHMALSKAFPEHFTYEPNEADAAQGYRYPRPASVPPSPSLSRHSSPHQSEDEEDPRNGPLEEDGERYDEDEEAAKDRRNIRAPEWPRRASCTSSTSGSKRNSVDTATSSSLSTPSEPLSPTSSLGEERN
Chain of hGYS1 enzyme (recombinant hGYS1/GN1 protein) (P46976 whole entry partner): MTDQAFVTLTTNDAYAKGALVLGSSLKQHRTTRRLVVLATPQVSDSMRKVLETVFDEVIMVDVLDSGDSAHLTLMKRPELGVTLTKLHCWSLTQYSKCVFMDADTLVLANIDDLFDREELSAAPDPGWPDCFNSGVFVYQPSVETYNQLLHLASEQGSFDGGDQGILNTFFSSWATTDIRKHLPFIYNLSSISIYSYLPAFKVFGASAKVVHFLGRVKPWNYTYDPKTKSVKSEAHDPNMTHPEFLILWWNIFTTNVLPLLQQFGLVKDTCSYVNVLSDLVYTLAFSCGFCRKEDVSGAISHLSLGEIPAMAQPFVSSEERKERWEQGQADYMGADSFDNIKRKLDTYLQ
Experiment [2] addresses hGYS2 enzyme (recombinant hGYS2/GN1 protein) (Homo sapiens (Human), UniProt P54840). The experiment can be described thus: GYS2 coupled enzyme assay (PK/LDH). The format is biochemical. As to conditions: geometric mean of at least 2 assay runs on separate days, read-out: Avg_IC50. In outline: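 Recombinant hGYS2/GN1 (200 nM) with 2 mM UDP-glucose, 0.2% rabbit liver glycogen, 2 mM glucose-6-phosphate; UDP coupled via PK/LDH (2 mM PEP, 0.6 mM NADH). Buffer 50 mM Tris pH 7.5, 2 mM MgCl2, 100 mM KCl, 2.5% DMSO. A340 slope over 10 min; IC50 from Hill fit of duplicates.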

Experiment [3] relates to hGYS1 enzyme / glycogen synthesis in HeLa cells. Briefly: GYS1 cell based assay (glycogen synthesis, Glucose-glo). Also on record: species or system human. As to conditions: Homo sapiens, HeLa, 24 h, 24 h incubation, 20 mM glucose, geometric mean of at least 2 runs. In outline: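 HeLa cells starved 24 h in medium containing only 1× Glutamax were plated onto compound in medium with 20 mM glucose (1% DMSO final) for 24 h, 37 °C, 5% CO2. Acid lysates were Tris-quenched, glucoamylase-digested (pH 5.3, 1 h, 37 °C) and read by Glucose-glo luminescence. IC50 came from Hill fits, as geometric mean of ≥2 runs.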

Chain of hGYS2 enzyme (recombinant hGYS2/GN1 protein) (P54840 whole entry): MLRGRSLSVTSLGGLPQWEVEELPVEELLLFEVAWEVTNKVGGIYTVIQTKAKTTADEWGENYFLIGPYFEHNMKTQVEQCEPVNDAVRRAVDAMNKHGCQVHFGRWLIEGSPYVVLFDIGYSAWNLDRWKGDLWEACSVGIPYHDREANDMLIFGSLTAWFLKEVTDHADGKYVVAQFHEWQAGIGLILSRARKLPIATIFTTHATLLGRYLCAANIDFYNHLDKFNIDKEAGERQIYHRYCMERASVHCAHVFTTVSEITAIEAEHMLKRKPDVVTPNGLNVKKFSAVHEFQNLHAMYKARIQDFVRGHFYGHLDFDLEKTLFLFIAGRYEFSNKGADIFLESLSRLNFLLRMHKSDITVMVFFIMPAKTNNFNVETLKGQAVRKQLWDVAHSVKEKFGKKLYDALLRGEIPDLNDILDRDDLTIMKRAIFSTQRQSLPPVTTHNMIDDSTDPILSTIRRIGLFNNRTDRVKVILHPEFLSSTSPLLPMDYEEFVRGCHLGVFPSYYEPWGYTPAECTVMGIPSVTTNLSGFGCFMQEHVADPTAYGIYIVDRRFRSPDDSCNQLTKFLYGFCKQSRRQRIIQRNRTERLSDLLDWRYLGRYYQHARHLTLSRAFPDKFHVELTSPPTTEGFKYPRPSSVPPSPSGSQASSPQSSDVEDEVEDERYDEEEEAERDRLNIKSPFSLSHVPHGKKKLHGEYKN
Chain of hGYS2 enzyme (recombinant hGYS2/GN1 protein) (P46976 whole entry partner): as the sequence (P46976 whole entry partner) above

Consider `CC(C)c1ccc([C@@H](NC(=O)[C@@H]2[C@H]3C[C@H]3CN2C(=O)Cc2cnn[nH]2)c2ccccc2)nc1` [Compound 279, (1S,2S,5R)-N-[(S)-phenyl[5-(propan-2-yl)pyridin-2-yl]methyl]-3-[2-(1H-1,2,3-triazol-5-yl)acetyl]-3-azabicyclo[3.1.0]hexane-2-carboxamide], for which the values for the IC50 in experiment [1], in experiment [2] and in experiment [3] were 234 nM, above 100000 nM and 2310 nM, respectively.
As for `CC(C)c1ccc([C@@H](NC(=O)[C@@H]2C[C@@H](F)CN2C(=O)Cn2ncc(N3CC(F)(F)C3)n2)c2ccccc2)nc1F` [Compound 413, (2S,4R)-1-{2-[4-(3,3-difluoroazetidin-1-yl)-2H-1,2,3-triazol-2-yl]acetyl}-4-fluoro-N-[(S)-[6-fluoro-5-(propan-2-yl)pyridin-2-yl](phenyl)methyl] pyrrolidine-2-carboxamide], the IC50 in experiment [1] is 6 nM; in experiment [2] it was above 100000 nM; in experiment [3], 160 nM.
Turning to `CC1(c2ccc([C@@H](NC(=O)[C@@H]3C[C@@H](F)CN3C(=O)COC(=O)N3CCN(CC(F)(F)F)CC3)c3ccccc3)cc2F)CC1` [Compound 585, 2-[(2S,4R)-4-fluoro-2-{[(S)-[3-fluoro-4-(1-methylcyclopropyl)phenyl](phenyl)methyl]carbamoyl}pyrrolidin-1-yl]-2-oxoethyl 4-(2,2,2-trifluoroethyl) piperazine-1-carboxylate], the figures for the IC50 in experiment [1], in experiment [2] and in experiment [3] were 202 nM, above 100000 nM and 3210 nM, respectively.
In the same order, the values of `CC(C)c1ccc([C@@H](NC(=O)[C@@H]2C[C@@H](F)CN2C(=O)Cc2[nH]nnc2N2CCOCC2)c2ccccc2)cc1F` [Compound 371, (2S,4R)-4-fluoro-N-[(S)-[3-fluoro-4-(propan-2-yl)phenyl](phenyl)methyl]-1-{2-[4-(morpholin-4-yl)-1H-1,2,3-triazol-5-yl]acetyl}pyrrolidine-2-carboxamide] are 343 nM, above 100000 nM and 3880 nM.
The corresponding values for `Cc1cn(CC(=O)N2C[C@H](F)C[C@H]2C(=O)N[C@@H](c2ccccc2)c2ccc(C3CC3)c(F)c2)c(=O)[nH]c1=O` [Compound 442, (2S,4R)-N-[(S)-(4-cyclopropyl-3-fluorophenyl)(phenyl)methyl]-4-fluoro-1-[2-(5-methyl-2,4-dioxo-1,2,3,4-tetrahydropyrimidin-1-yl)acetyl]pyrrolidine-2-carboxamide] are 23 nM, above 100000 nM and 860 nM.
Take `CCn1c(=O)ccn(CC(=O)N2C[C@H](F)C[C@H]2C(=O)N[C@@H](c2ccccc2)c2ccc(C3CC(F)(F)C3)c(F)n2)c1=O` [Compound 515, (2S,4R)-N-[(S)-[5-(3,3-difluorocyclobutyl)-6-fluoropyridin-2-yl](phenyl)methyl]-1-[2-(3-ethyl-2,4-dioxo-l,2,3,4-tetrahydropyrimidin-1-yl)acetyl]-4-fluoropyrrolidine-2-carboxamide]: the IC50 was 4 nM in experiment [1], above 100000 nM in experiment [2] and 100 nM in experiment [3].
In the same order, the values of `Cc1ccnn1CC(=O)N1C[C@H](F)C[C@H]1C(=O)N[C@@H](c1ccccc1)c1ccc(C(C)C)c(F)n1` [Compound 782, (2S,4R)-4-fluoro-N-[(S)-[6-fluoro-5-(propan-2-yl)pyridin-2-yl](phenyl)methyl]-1-[2-(5-methyl-1H-pyrazol-1-yl)acetyl] pyrrolidine-2-carboxamide] are 11 nM, above 100000 nM and 220 nM.
For the compound `Cc1nccc(NCC(=O)N2C[C@H](F)C[C@H]2C(=O)N[C@@H](c2ccccc2)c2ccc(C(C)C)cn2)n1` [Compound 269, (2S,4R)-4-fluoro-1-{2-[(2-methylpyrimidin-4-yl)amino]acetyl}-N-[(S)-phenyl[5-(propan-2-yl)pyridin-2-yl]methyl]pyrrolidine-2-carboxamide], the IC50 in experiment [1] is 14 nM; in experiment [2], above 100000 nM; in experiment [3], 240 nM.
In the same order, the values of `CC(C)c1ccc([C@@H](NC(=O)[C@@H]2C[C@@H](F)CN2C(=O)CNC(N)=O)c2ccccc2)nc1` [Compound 262, (2S,4R)-1-[2-(carbamoylamino)acetyl]-4-fluoro-N-[(S)-phenyl[5-(propan-2-yl)pyridin-2-yl]methyl]pyrrolidine-2-carboxamide] are 62 nM, above 100000 nM and 3630 nM.
In the same order, the values of `O=C(N[C@@H](c1ccccc1)c1ccc(C2CC2)c(F)n1)[C@@H]1C[C@@H](F)CN1C(=O)Cc1ccc[nH]c1=O` [Compound 731, (2S,4R)-N-[(S)-(5-cyclopropyl-6-fluoropyridin-2-yl)(phenyl)methyl]-4-fluoro-1-[2-(2-oxo-1,2-dihydropyridin-3-yl)acetyl]pyrrolidine-2-carboxamide] are 66 nM, above 100000 nM and 1620 nM.
The corresponding values for `O=C(N[C@@H](c1ccccc1)c1ccc(C2CC(F)(F)C2)c(F)n1)[C@@H]1C[C@@H](F)CN1C(=O)Cc1cnn[nH]1` [Compound 508, (2S,4R)-N-[(S)-[5-(3,3-difluorocyclobutyl)-6-fluoropyridin-2-yl](phenyl)methyl]-4-fluoro-1-[2-(1H-1,2,3-triazol-5-yl)acetyl]pyrrolidine-2-carboxamide] are 21 nM, above 100000 nM and 310 nM.
`Cn1nc(CC(=O)N2C[C@H](F)C[C@H]2C(=O)N[C@@H](c2ccccc2)c2ccc(C3CC3)c(F)n2)n(C)c1=O` [Compound 722, (2S,4R)-N-[(S)-(5-cyclopropyl-6-fluoropyridin-2-yl)(phenyl)methyl]-1-[2-(1,4-dimethyl-5-oxo-4,5-dihydro-1H-1,2,4-triazol-3-yl)acetyl]-4-fluoropyrrolidine-2-carboxamide]: the values for the IC50 in experiment [1], in experiment [2] and in experiment [3] were 85 nM, above 100000 nM and 1450 nM, respectively.
Take `COCCN1CCN(C(=O)OCC(=O)N2C[C@H](F)C[C@H]2C(=O)N[C@@H](c2ccccc2)c2ccc(C3CC3)c(F)c2)CC1` [Compound 448, 2-[(2S,4R)-2-{[(S)-(4-cyclopropyl-3-fluorophenyl)(phenyl)methyl]carbamoyl}-4-fluoropyrrolidin-1-yl]-2-oxoethyl 4-(2-methoxyethyl)piperazine-1-carboxylate]: the IC50 in experiment [1] was 71 nM; in experiment [2] it was above 100000 nM; in experiment [3], 1350 nM.
On to `Cn1c(=O)n(CC(=O)N2C[C@H](F)C[C@H]2C(=O)N[C@@H](c2ccccc2)c2ccc(C3(C)CC3)c(F)n2)c2ccccc21` [Compound 600, (2S,4R)-4-fluoro-N-[(S)-[6-fluoro-5-(1-methylcyclopropyl)pyridin-2-yl](phenyl)methyl]-1-[2-(3-methyl-2-oxo-2,3-dihydro-1H-1,3-benzodiazol-1-yl)acetyl]pyrrolidine-2-carboxamide], for which the values for the IC50 in experiment [1], in experiment [2] and in experiment [3] were 36 nM, above 100000 nM and 620 nM, respectively.
The corresponding values for `CC1(c2ccc([C@@H](NC(=O)[C@@H]3C[C@@H](F)CN3C(=O)CN3Cc4ccccc4C3=O)c3ccccc3)cc2F)CC1` [Compound 573, (2S,4R)-4-fluoro-N-[(S)-[3-fluoro-4-(1-methylcyclopropyl)phenyl](phenyl)methyl]-1-[2-(1-oxo-2,3-dihydro-1H-isoindol-2-yl)acetyl]pyrrolidine-2-carboxamide] are 178 nM, above 100000 nM and 1660 nM.
The corresponding values for `Cc1nc(C(NC(=O)[C@@H]2C[C@@H](F)CN2C(=O)Cc2nnc(C(F)F)o2)c2ccccc2)ccc1C(C)C` (single isomer, unassigned) [Compound 609, (2S,4R)-1-{2-[5-(difluoromethyl)-1,3,4-oxadiazol-2-yl]acetyl}-4-fluoro-N-[(S) or (R)-[6-methyl-5-(propan-2-yl)pyridin-2-yl](phenyl)methyl] pyrrolidine-2-carboxamide] are 225 nM, above 100000 nM and 1650 nM.
For `Cc1nc2ccccc2n1CC(=O)N1C[C@H](F)C[C@H]1C(=O)N[C@@H](c1ccccc1)c1ccc(C2(C)CC2)c(F)c1` [Compound 566, (2S,4R)-4-fluoro-N-[(S)-[3-fluoro-4-(1-methylcyclopropyl)phenyl](phenyl)methyl]-1-[2-(2-methyl-1H-1,3-benzodiazol-1-yl)acetyl]pyrrolidine-2-carboxamide], the IC50 in experiment [1] is 46 nM; in experiment [2], above 100000 nM; in experiment [3] it was 770 nM.
Consider `CC(C)c1ccc([C@@H](NC(=O)[C@@H]2C[C@@H](F)CN2C(=O)[C@H](C)NC(=O)N(C)C)c2ccccc2)nc1` [Compound 273, (2S,4R)-1-[(2S)-2-[(dimethylcarbamoyl)amino]propanoyl]-4-fluoro-N-[(S)-phenyl[5-(propan-2-yl)pyridin-2-yl]methyl]pyrrolidine-2-carboxamide], for which the IC50 in experiment [1] is 149 nM; in experiment [2], above 100000 nM; in experiment [3] it was 1790 nM.
